In PubChem BioAssay (NCI):
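Compound exposure: 48 hours, 5 concentrations, 96-well plates. GI50 is the concentration that inhibits growth by half. TGI: total growth inhibition.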

Legend:
Experiment in all cases: inhibition of tumour cell growth, NCI panel, 48 h
HOP-62 NSCLC = tested on: HOP-62 NSCLC
SW-620 colon = tested on: SW-620 colon
COLO 205 colon = tested on: COLO 205 colon
OVCAR-3 ovarian = tested on: OVCAR-3 ovarian
OVCAR-8 ovarian = tested on: OVCAR-8 ovarian
K-562 leukemia = tested on: K-562 leukemia
SF-268 CNS = tested on: SF-268 CNS
IGROV1 ovarian = tested on: IGROV1 ovarian
MCF7 breast = tested on: MCF7 breast
SF-539 CNS = tested on: SF-539 CNS
T-47D breast = tested on: T-47D breast
SK-MEL-5 melanoma = tested on: SK-MEL-5 melanoma
PC-3 prostate = tested on: PC-3 prostate
CAKI-1 renal = tested on: CAKI-1 renal
RPMI-8226 leukemia = tested on: RPMI-8226 leukemia
OVCAR-4 ovarian = tested on: OVCAR-4 ovarian
SN12C renal = tested on: SN12C renal
DU-145 prostate = tested on: DU-145 prostate
TK-10 renal = tested on: TK-10 renal
A549 NSCLC = tested on: A549 NSCLC
LOX IMVI melanoma = tested on: LOX IMVI melanoma
NCI-H226 lung = tested on: NCI-H226 lung
SNB-75 CNS = tested on: SNB-75 CNS
HOP-92 NSCLC = tested on: HOP-92 NSCLC
HS 578T breast = tested on: HS 578T breast
U251 CNS = tested on: U251 CNS
HCT-15 colon = tested on: HCT-15 colon
NCI/ADR-RES ovarian = tested on: NCI/ADR-RES ovarian
SK-OV-3 ovarian = tested on: SK-OV-3 ovarian
NCI-H23 lung = tested on: NCI-H23 lung
HT29 colon = tested on: HT29 colon
HL-60(TB) leukemia = tested on: HL-60(TB) leukemia
MALME-3M melanoma = tested on: MALME-3M melanoma
MOLT-4 leukemia = tested on: MOLT-4 leukemia
A498 renal = tested on: A498 renal
NCI-H522 lung = tested on: NCI-H522 lung
M14 melanoma = tested on: M14 melanoma
MDA-MB-435 = tested on: MDA-MB-435
CCRF-CEM leukemia = tested on: CCRF-CEM leukemia
UACC-257 melanoma = tested on: UACC-257 melanoma
UO-31 renal = tested on: UO-31 renal
SR leukemia = tested on: SR leukemia
UACC-62 melanoma = tested on: UACC-62 melanoma
OVCAR-5 ovarian = tested on: OVCAR-5 ovarian
ACHN renal = tested on: ACHN renal
SNB-19 CNS = tested on: SNB-19 CNS
RXF 393 renal = tested on: RXF 393 renal
NCI-H460 lung = tested on: NCI-H460 lung
BT-549 breast = tested on: BT-549 breast
SK-MEL-28 melanoma = tested on: SK-MEL-28 melanoma
KM12 colon = tested on: KM12 colon
SF-295 CNS = tested on: SF-295 CNS
HCC-2998 colon = tested on: HCC-2998 colon
MDA-MB-231 breast = tested on: MDA-MB-231 breast
786-0 renal = tested on: 786-0 renal
HCT-116 colon = tested on: HCT-116 colon
SK-MEL-2 melanoma = tested on: SK-MEL-2 melanoma

## Cn1cc(C2=C(c3cn(C)c4ccc(OCc5ccccc5)cc34)C(=O)NC2=O)c2ccccc21
HOP-62 NSCLC
  GI50: > 25 µM
  TGI: > 25 µM
SW-620 colon
  GI50: > 25 µM
  TGI: > 25 µM
COLO 205 colon
  GI50: > 25 µM
  TGI: > 25 µM
OVCAR-3 ovarian
  GI50: > 25 µM
  TGI: > 25 µM
OVCAR-8 ovarian
  GI50: > 25 µM
  TGI: > 25 µM
K-562 leukemia
  GI50: > 25 µM
  TGI: > 25 µM
SF-268 CNS
  GI50: > 25 µM
  TGI: > 25 µM
IGROV1 ovarian
  GI50: > 25 µM
  TGI: > 25 µM
MCF7 breast
  GI50: > 25 µM
  TGI: > 25 µM
SF-539 CNS
  GI50: > 25 µM
  TGI: > 25 µM
T-47D breast
  GI50: > 25 µM
  TGI: > 25 µM
SK-MEL-5 melanoma
  GI50: > 25 µM
  TGI: > 25 µM
PC-3 prostate
  GI50: > 25 µM
  TGI: > 25 µM
CAKI-1 renal
  GI50: > 25 µM
  TGI: > 25 µM
RPMI-8226 leukemia
  GI50: > 25 µM
  TGI: > 25 µM
OVCAR-4 ovarian
  GI50: > 16.9 µM
  TGI: > 25 µM
SN12C renal
  GI50: > 25 µM
  TGI: > 25 µM
DU-145 prostate
  GI50: > 25 µM
  TGI: > 25 µM
TK-10 renal
  GI50: > 25 µM
  TGI: > 25 µM
A549 NSCLC
  GI50: > 25 µM
  TGI: > 25 µM
LOX IMVI melanoma
  GI50: > 25 µM
  TGI: > 25 µM
NCI-H226 lung
  GI50: > 25 µM
  TGI: > 25 µM
SNB-75 CNS
  GI50: > 25 µM
  TGI: > 25 µM
HOP-92 NSCLC
  GI50: > 25 µM
  TGI: > 25 µM
HS 578T breast
  GI50: > 21.2 µM
  TGI: > 25 µM
U251 CNS
  GI50: > 25 µM
  TGI: > 25 µM
HCT-15 colon
  GI50: > 25 µM
  TGI: > 25 µM
NCI/ADR-RES ovarian
  GI50: > 25 µM
  TGI: > 25 µM
SK-OV-3 ovarian
  GI50: > 25 µM
  TGI: > 25 µM
NCI-H23 lung
  GI50: > 25 µM
  TGI: > 25 µM
HT29 colon
  GI50: > 25 µM
  TGI: > 25 µM
HL-60(TB) leukemia
  GI50: > 25 µM
  TGI: > 25 µM
MALME-3M melanoma
  GI50: > 25 µM
  TGI: > 25 µM
MOLT-4 leukemia
  GI50: > 25 µM
  TGI: > 25 µM
A498 renal
  GI50: > 25 µM
  TGI: > 25 µM
NCI-H522 lung
  GI50: > 25 µM
  TGI: > 25 µM
M14 melanoma
  GI50: > 25 µM
  TGI: > 25 µM
MDA-MB-435
  GI50: > 25 µM
  TGI: > 25 µM
CCRF-CEM leukemia
  GI50: > 25 µM
  TGI: > 25 µM
UACC-257 melanoma
  GI50: > 25 µM
  TGI: > 25 µM
UO-31 renal
  GI50: > 25 µM
  TGI: > 25 µM
SR leukemia
  GI50: > 25 µM
  TGI: > 25 µM
UACC-62 melanoma
  GI50: > 25 µM
  TGI: > 25 µM
OVCAR-5 ovarian
  GI50: > 25 µM
  TGI: > 25 µM
ACHN renal
  GI50: > 25 µM
  TGI: > 25 µM
SNB-19 CNS
  GI50: > 25 µM
  TGI: > 25 µM
RXF 393 renal
  GI50: > 25 µM
  TGI: > 25 µM
NCI-H460 lung
  GI50: > 25 µM
  TGI: > 25 µM
BT-549 breast
  GI50: > 25 µM
  TGI: > 25 µM
SK-MEL-28 melanoma
  GI50: > 25 µM
  TGI: > 25 µM
KM12 colon
  GI50: > 25 µM
  TGI: > 25 µM
SF-295 CNS
  GI50: > 25 µM
  TGI: > 25 µM
HCC-2998 colon
  GI50: > 25 µM
  TGI: > 25 µM
MDA-MB-231 breast
  GI50: > 25 µM
  TGI: > 25 µM
786-0 renal
  GI50: > 25 µM
  TGI: > 25 µM
HCT-116 colon
  GI50: > 25 µM
  TGI: > 25 µM
SK-MEL-2 melanoma
  GI50: > 25 µM
  TGI: > 25 µM
